In patent US4579940A, “14-de(hydroxymethyl)-mycaminosyltylonolide derivatives” (Toyo Jozo Kabushiki Kaisha, priority 1983, dated 1986) one finds MIC data, which are given here for nine compounds.

Converted amounts (≈) assume the structure as drawn. Read-outs that look alike come from different tables or passages of the source.

Holding throughout (type): cell-based
One test has as its system Strept. agalactiae 1020. Nature of the test: minimum inhibitory concentration (MIC), Strept. agalactiae 1020. To be noted: Streptococcus agalactiae.
For a further test, the system named is Staph. aureus MS353C36. Nature of the test: minimum inhibitory concentration (MIC), Staph. aureus MS353C36*. To be noted: Staphylococcus aureus, macrolide-antibiotics resistant. The source says:
(§1) In Table 1, the abbreviations have the following meanings:
(§2) The test organisms were macrolide-antibiotics resistant A-group stains (clinical isolates of strains resistant to erythromycin, olenadomycin and 16-membered macrolide antibiotics).

The next test has as its system Strept. pyogenes N.Y.5. Briefly: minimum inhibitory concentration (MIC), Strept. pyogenes N.Y.5. Conditions: Streptococcus pyogenes. The source says: In Table 1, the abbreviations have the following meanings: […]
A further test deals with Strept. pyogenes 1022. Nature of the test: minimum inhibitory concentration (MIC), Strept. pyogenes 1022*. To be noted: Streptococcus pyogenes, macrolide-antibiotics resistant.
Text: as §1, §2

For a further test, the system named is Staph. aureus MS353. Nature of the test: minimum inhibitory concentration (MIC), Staph. aureus MS353. To be noted: Staphylococcus aureus.
In test [1] the test system is Staph epidermidis ap-al-l. Briefly: minimum inhibitory concentration (MIC), Staph epidermidis.
The test system of a further test is Strept. faecalis 1501. Nature of the test: minimum inhibitory concentration (MIC), Strept. faecalis 1501. To be noted: Enterococcus faecalis.
For another test, the system named is Staph. aureus ATCC6538P. Nature of the test: minimum inhibitory concentration (MIC), Staph. aureus ATCC6538P. Conditions: Staphylococcus aureus.
The test system of test [2] is Kleb. pneumoniae ATCC10031. Nature of the test: minimum inhibitory concentration (MIC), Kleb. pneumoniae ATCC10031. Conditions: Klebsiella pneumoniae.
The next test deals with Proteus vulgaris OX19. Nature of the test: minimum inhibitory concentration (MIC), Proteus vulgaris OX19.
A further test has as its system Serratia marcescens. Nature of the test: minimum inhibitory concentration (MIC), Serratia marcescens.
A further test deals with E. coli NIHJ-JC2. Nature of the test: minimum inhibitory concentration (MIC), E. coli NIHJ-JC2. To be noted: Escherichia coli, NIHJJC2.
The mark [3] stands for this setting: Staph epidermidis ap-al-l, read-out: MIC.

The term MIC denotes the lowest concentration found to suppress growth. Consider `CCOC(=O)C1C=C(C)C=CC(=O)C(C)CC(CC=O)C(OC2OC(C)C(O)C(N(C)C)C2O)C(C)C(O)CC(=O)OC1CC` (stereo not drawn) [H, 14-ethyloxycarbonyl-14-de(hydroxymethyl)-O-mycaminosyltylonolide], for which the MIC was not above 0.05 µg/mL against Strept. agalactiae 1020; 0.4 µg/mL (≈ 0.625 µM) in the test on Staph. aureus MS353C36; not above 0.05 µg/mL against Strept. pyogenes N.Y.5; more than 100 µg/mL in the test on Strept. pyogenes 1022; 0.2 µg/mL (≈ 0.313 µM) in the test with Staph. aureus MS353; 0.1 µg/mL (≈ 0.156 µM) in test [1] (setting [3]). Besides, the MIC against Strept. faecalis 1501 is not above 0.05 µg/mL; in the test on Staph. aureus ATCC6538P, 0.2 µg/mL (≈ 0.313 µM).
`CCC1OC(=O)CC(O)C(C)C(OC2OC(C)C(OC(C)=O)C(N(C)C)C2OC(C)=O)C(CC(OC)OC)CC(C)C(=O)C=CC(C)=CC1CO` (stereo not drawn) [A, 2',4'-di-O-acetyl-O-mycaminosyltylonolide dimethylacetal]: the MIC is 1.6 µg/mL (≈ 2.2 µM) in test [2]; 6.3 µg/mL (≈ 8.66 µM) in the test on Proteus vulgaris OX19; not above 0.05 µg/mL in the test on Strept. agalactiae 1020; not above 0.05 µg/mL with Strept. pyogenes N.Y.5; more than 100 µg/mL against Strept. pyogenes 1022; 0.2 µg/mL (≈ 0.275 µM) against Staph. aureus MS353. In addition, the MIC in test [1] (setting [3]) was determined as 0.1 µg/mL (≈ 0.137 µM); against Serratia marcescens, 12.5 µg/mL (≈ 17.2 µM); against E. coli NIHJ-JC2 it was 25 µg/mL (≈ 34.3 µM); in the test on Strept. faecalis 1501 it was 0.2 µg/mL (≈ 0.275 µM); against Staph. aureus ATCC6538P it was 0.2 µg/mL (≈ 0.275 µM).
Take `CCC1OC(=O)CC(O)C(C)C(OC2OC(C)C(O)C(N(C)C)C2O)C(CC=O)CC(C)C(=O)C=CC(C)=CC1C(=O)OC(C)C` (stereo not drawn) [G, 14-isopropyloxycarbonyl-14-de(hydroxymethyl)-O-mycaminosyltylonolide]: the MIC in the test on Strept. agalactiae 1020 is not above 0.05 µg/mL; in the test on Staph. aureus MS353C36 it was 0.8 µg/mL (≈ 1.22 µM); with Strept. pyogenes N.Y.5, not above 0.05 µg/mL; against Strept. pyogenes 1022, more than 100 µg/mL; with Staph. aureus MS353, 0.4 µg/mL (≈ 0.612 µM); in test [1] (setting [3]) it was 0.2 µg/mL (≈ 0.306 µM). Moreover, the results for the MIC against Strept. faecalis 1501 and in the test with Staph. aureus ATCC6538P were 0.2 µg/mL (≈ 0.306 µM) and 0.4 µg/mL (≈ 0.612 µM), respectively.
`CCC1CC=C(C)C=CC(=O)C(C)CC(CC=O)C(OC2OC(C)C(O)C(N(C)C)C2O)C(C)C(O)CC(=O)O1` (stereo not drawn) [C, 14-de(hydroxymethyl)-O-mycaminosyltylonolide]: the MIC in the test on Strept. agalactiae 1020 is not above 0.05 µg/mL; with Staph. aureus MS353C36 it was not above 0.05 µg/mL; against Strept. pyogenes N.Y.5, not above 0.05 µg/mL; with Strept. pyogenes 1022, more than 100 µg/mL; against Staph. aureus MS353 it was not above 0.05 µg/mL; in test [1] (setting [3]), not above 0.05 µg/mL. Besides, the figures for the MIC against Strept. faecalis 1501 and in the test with Staph. aureus ATCC6538P were 0.1 µg/mL (≈ 0.176 µM) and not above 0.05 µg/mL, respectively.
On to `CCC1OC(=O)CC(O)C(C)C(OC2OC(C)CC(N(C)C)C2OC(C)=O)C(CC=O)CC(C)C(=O)C=CC(C)=CC1CO` (stereo not drawn) [D, 2'-O-acetyl-4'-deoxy-O-mycaminosyltylonolide], for which the minimum inhibitory concentration (MIC) with Strept. agalactiae 1020 is not above 0.05 µg/mL; in the test with Staph. aureus MS353C36, 0.2 µg/mL (≈ 0.321 µM); against Strept. pyogenes N.Y.5, not above 0.05 µg/mL; with Strept. pyogenes 1022 it was more than 100 µg/mL; against Staph. aureus MS353 it was 0.2 µg/mL (≈ 0.321 µM); in test [1] (setting [3]), not above 0.05 µg/mL. Moreover, the MIC in the test with Strept. faecalis 1501 and against Staph. aureus ATCC6538P was 0.2 µg/mL (≈ 0.321 µM) throughout.
For the compound `CC[C@H]1OC(=O)[C@H](C)[C@@H](O[C@H]2C[C@@](C)(OC)[C@@H](O)[C@H](C)O2)[C@H](C)[C@@H](O[C@@H]2O[C@H](C)C[C@H](N(C)C)[C@H]2O)[C@](C)(O)C[C@@H](C)C(=O)[C@H](C)[C@@H](O)[C@]1(C)O` [EM, erythromycin, reference compound], the MIC against Strept. agalactiae 1020 was not above 0.05 µg/mL; with Staph. aureus MS353C36, more than 100 µg/mL; against Strept. pyogenes N.Y.5, not above 0.05 µg/mL; against Strept. pyogenes 1022, more than 100 µg/mL; in the test with Staph. aureus MS353 it was 0.2 µg/mL (≈ 0.273 µM); in test [1] it was 0.1 µg/mL (≈ 0.136 µM). In the test on Staph. aureus ATCC6538P, the minimum inhibitory concentration (MIC) is 0.2 µg/mL (≈ 0.273 µM).
Consider `CC[C@H]1OC(=O)C[C@@H](O)[C@H](C)[C@@H](O[C@@H]2O[C@H](C)[C@@H](O[C@H]3C[C@@](C)(O)[C@@H](O)[C@H](C)O3)[C@H](N(C)C)[C@H]2O)[C@@H](CC=O)C[C@@H](C)C(=O)/C=C/C(C)=C/[C@@H]1CO[C@@H]1O[C@H](C)[C@@H](O)[C@@H](OC)[C@H]1OC` [TS, tylosin, reference compound], for which the MIC in the test on Strept. agalactiae 1020 is 0.4 µg/mL (≈ 0.437 µM); in the test with Staph. aureus MS353C36 it was more than 100 µg/mL; in the test on Strept. pyogenes 1022, more than 100 µg/mL; in [1] it was 0.4 µg/mL (≈ 0.437 µM); in the test with E. coli NIHJ-JC2 it was more than 100 µg/mL; against Strept. faecalis 1501 it was 1.6 µg/mL (≈ 1.75 µM).
On to `CCC1CC=C(C)C=CC(=O)C(C)CC(CC=O)C(OC2OC(C)CC(N(C)C)C2O)C(C)C(O)CC(=O)O1` (stereo not drawn) [F, 14-de(hydroxymethyl)-4'-deoxy-O-mycaminosyltylonolide], for which the MIC is not above 0.05 µg/mL with Strept. agalactiae 1020; 0.2 µg/mL (≈ 0.363 µM) in the test with Staph. aureus MS353C36; not above 0.05 µg/mL in the test with Strept. pyogenes N.Y.5; more than 100 µg/mL with Strept. pyogenes 1022; 0.1 µg/mL (≈ 0.181 µM) with Staph. aureus MS353; not above 0.05 µg/mL in [1] (setting [3]). Also, the MIC against Strept. faecalis 1501 amounted to 0.2 µg/mL (≈ 0.363 µM); in the test on Staph. aureus ATCC6538P, 0.1 µg/mL (≈ 0.181 µM).
With `CCC1OC(=O)CC(O)C(C)C(OC2OC(C)CC(N(C)C)C2OC(C)=O)C(CC(OC)OC)CC(C)C(=O)C=CC(C)=CC1CO` (stereo not drawn) [E, 2'-O-acetyl-4'-deoxy-O-mycaminosyltylonolide dimethylacetal], the MIC against Strept. agalactiae 1020 is not above 0.05 µg/mL; with Staph. aureus MS353C36 it was 0.1 µg/mL (≈ 0.149 µM); with Strept. pyogenes N.Y.5, not above 0.05 µg/mL; with Strept. pyogenes 1022, more than 100 µg/mL; in the test on Staph. aureus MS353 it was 0.1 µg/mL (≈ 0.149 µM); in test [1] (setting [3]), not above 0.05 µg/mL. In addition, the MIC against Strept. faecalis 1501 is not above 0.05 µg/mL; in the test on Staph. aureus ATCC6538P, 0.1 µg/mL (≈ 0.149 µM).
